According to BindingDB's records for doi:10.1016/s0960-894x(01)00529-7 (The R. W. Johnson Pharmaceutical Research Institute, 2001):

assay: Inhibition of thrombin-induced human gel-filtered platelet aggregation

SMILES | IC50 [nM]
O=C(N[C@@H](CNC(=O)C1CCCn2c(CCC3CCNCC3)nnc21)C(=O)O)OCc1ccccc1 (stereo partly specified) [2-Benzyloxycarbonylamino-3-{[3-(2-piperidin-4-yl-ethyl)-5,6,7,8-tetrahydro-[1,2,4]triazolo[4,3-a]pyridine-8-carbonyl]-amino}-propionic acid] | 0.068
O=C(O)C[C@H](NC(=O)C1CCCn2c(/C=C/C3CCNCC3)nnc21)c1cccnc1 (stereo partly drawn) [(S)-3-{[3-((E)-2-Piperidin-4-yl-vinyl)-5,6,7,8-tetrahydro-[1,2,4]triazolo[4,3-a]pyridine-8-carbonyl]-amino}-3-pyridin-3-yl-propionic acid] | 0.061
O=C(Cc1cccnc1)N[C@@H](CNC(=O)C1CCCn2c(/C=C/C3CCNCC3)nnc21)C(=O)O (stereo partly specified) [3-{[3-(2-Piperidin-4-yl-vinyl)-5,6,7,8-tetrahydro-[1,2,4]triazolo[4,3-a]pyridine-8-carbonyl]-amino}-2-(2-pyridin-3-yl-acetylamino)-propionic acid] | 0.12
O=C(O)C[C@H](NC(=O)c1cccn2c(CCC3CCNCC3)nnc12)c1cccnc1 [(S)-3-{[3-(2-Piperidin-4-yl-ethyl)-[1,2,4]triazolo[4,3-a]pyridine-8-carbonyl]-amino}-3-pyridin-3-yl-propionic acid] | 0.37
CC1(C(=O)NC[C@H](NC(=O)OCc2ccccc2)C(=O)O)CCCn2c(CCC3CCNCC3)nnc21 (stereo partly specified) [2-Benzyloxycarbonylamino-3-{[8-methyl-3-(2-piperidin-4-yl-ethyl)-5,6,7,8-tetrahydro-[1,2,4]triazolo[4,3-a]pyridine-8-carbonyl]-amino}-propionic acid] | 2.7

Continued by falling IC50, values first:

IC50 [nM] | SMILES
0.06 | O=C(O)C[C@H](NC(=O)[C@@H]1CCCN(C(=O)CCC2CCNCC2)C1)c1cccnc1 [(S)-3-{[(R)-1-(3-Piperidin-4-yl-propionyl)-piperidine-3-carbonyl]-amino}-3-pyridin-3-yl-propionic acid]
0.057 | O=C(O)C[C@H](NC(=O)C1CCCn2c(/C=C/C3CCNCC3)nnc21)c1cnc2ccccc2c1 (stereo partly drawn) [(S)-3-{[3-((E)-2-Piperidin-4-yl-vinyl)-5,6,7,8-tetrahydro-[1,2,4]triazolo[4,3-a]pyridine-8-carbonyl]-amino}-3-quinolin-3-yl-propionic acid]
0.043 | O=C(NC[C@H](NS(=O)(=O)Cc1ccccc1)C(=O)O)C1CCCn2c(/C=C/C3CCNCC3)nnc21 (stereo partly specified) [2-Phenylmethanesulfonylamino-3-{[3-(2-piperidin-4-yl-vinyl)-5,6,7,8-tetrahydro-[1,2,4]triazolo[4,3-a]pyridine-8-carbonyl]-amino}-propionic acid]
0.041 | O=C(N[C@@H](CNC(=O)C1CCCn2c(C=CC3CCNCC3)nnc21)C(=O)O)OCc1ccccc1 (stereo partly specified) [2-Benzyloxycarbonylamino-3-{[3-(2-piperidin-4-yl-vinyl)-5,6,7,8-tetrahydro-[1,2,4]triazolo[4,3-a]pyridine-8-carbonyl]-amino}-propionic acid]
0.027 | O=C(N[C@@H](CNC(=O)[C@@H]1CCCN(C(=O)CCC2CCNCC2)C1)C(=O)O)OCc1ccccc1 [RWJ-53419]
0.016 | O=C(O)C[C@H](NC(=O)C1CCCn2c(CCC3CCNCC3)nnc21)c1cccnc1 (stereo partly drawn) [(S)-3-{[3-(2-Piperidin-4-yl-ethyl)-5,6,7,8-tetrahydro-[1,2,4]triazolo[4,3-a]pyridine-8-carbonyl]-amino}-3-pyridin-3-yl-propionic acid]
